≈ marks a conversion by molar mass, not a printed value. Where “and” joins values, the source holds several entries; their conditions need not be identical. Equal values may be shown once. Read-outs that look alike come from different tables or passages of the source.
Key:
Mel Ab melanocyte [1] = test: mammalian Mel Ab melanocyte culture pigment assay; assay type: cell-based, mouse; settings: read-out: P: concentration of compound that produces 50% inhibition in the mammalian Mel Ab melanocyte culture pigment assay
From the text: (§1) In the present invention, one or more of three in vitro bioassays can be utilized to evaluate the efficacy and toxicity of candidate skin-lightening compounds. The three bioassays characterize the compounds with regard to mammalian tyrosinase enzyme inhibition (cell free), pigmentation in cultured melanocyte cells, and cytotoxicity of mammalian cultured cells. Both cell-based pigmentation and cell-free enzymatic assays have been developed using the mammalian melanocyte cell line, Mel-Ab, a C57BL/6 mouse-derived cell line that produces high levels of melanin. A distinct advantage of this approach is that humans share substantial sequence similarities in their genes (DNA) and proteins (such as tyrosinase) with mice, relative to non-mammalian species (e.g., mushrooms). So, in vitro mouse Mel-Ab melanocytes can serve as adequate surrogates for human melanocytes and Mel-Ab-derived tyrosinase may substitute for the human enzyme for many pharmacologic purposes.
(§2) These adherent murine melanocytes are grown on tissue culture plastic in medium supplemented with fetal bovine serum, 12-O-tetradecanoylphorbol-13-acetate (TPA) to stimulate cell division via down-regulation of protein kinase C, [22, 23] and cholera toxin to stimulate adenylate cyclase activity in the absence of α-MSH. Cellular lysates of Mel-Ab cells may be used as tyrosinase enzyme preparations. Multi-well plate assays have been validated for enzyme inhibition (e.g., DOPA oxidation by calorimetric measurement or radiolabeled substrate incorporation into melanin) and for pigmentation assays on cultured Mel-Ab cells. After 4-6 days of treatment of cultured cells, melanin content is determined using a spectrophotometer at 400+ nm. This assay can detect an apparent loss in pigmentation resulting from either inhibition of de novo synthesis (e.g. via inhibition of tyrosinase, or the adenylate cyclase pathway, or another pathway) or a cytostatic/cytotoxic mechanism. It is therefore a broad primary screen. It is used in parallel with the tyrosinase enzymatic assay to determine whether an inhibitor of pigmentation at the cellular level is acting primarily at the enzyme level.
(§3) Inhibition [μM] as measured in three assays. Here “E” “E” [μM] is the concentration of compound that produces 50% inhibition in the cell-free mammalian tyrosinase enzyme assay is the concentration of compound that produces 50% inhibition in the cell-free mammalian tyrosinase enzyme assay. “P” represents the concentration of compound that produces 50% inhibition in the mammalian Mel Ab melanocyte culture pigment assay system. “T” is the concentration of compound that results in 50% reduction in cell number in the mammalian melanocyte culture toxicity assay system.

[2] = test system: mammalian melanocyte culture; test: mammalian melanocyte culture toxicity assay; assay type: cell-based, mouse
From the text: To determine cytotoxicity (and/or cytostasis), crystal violet or other staining methods may be used to quantify adherent cell numbers following a period of treatment by an agent.

mammalian tyrosinase [3] = target: T1, mammalian tyrosinase (Mus musculus, UniProt P11344); test: cell-free mammalian tyrosinase enzyme assay; assay type: biochemical; settings: cell-free enzyme extract; read-out: E: concentration of compound that produces 50% inhibition in the cell-free mammalian tyrosinase enzyme assay
T1 construct: Cellular lysates of Mel-Ab cells may be used as tyrosinase enzyme preparations; endogenous in cells; host or cells: Mel-Ab mouse melanocytes (cell lysate)
T1 sequence (P11344 19-533): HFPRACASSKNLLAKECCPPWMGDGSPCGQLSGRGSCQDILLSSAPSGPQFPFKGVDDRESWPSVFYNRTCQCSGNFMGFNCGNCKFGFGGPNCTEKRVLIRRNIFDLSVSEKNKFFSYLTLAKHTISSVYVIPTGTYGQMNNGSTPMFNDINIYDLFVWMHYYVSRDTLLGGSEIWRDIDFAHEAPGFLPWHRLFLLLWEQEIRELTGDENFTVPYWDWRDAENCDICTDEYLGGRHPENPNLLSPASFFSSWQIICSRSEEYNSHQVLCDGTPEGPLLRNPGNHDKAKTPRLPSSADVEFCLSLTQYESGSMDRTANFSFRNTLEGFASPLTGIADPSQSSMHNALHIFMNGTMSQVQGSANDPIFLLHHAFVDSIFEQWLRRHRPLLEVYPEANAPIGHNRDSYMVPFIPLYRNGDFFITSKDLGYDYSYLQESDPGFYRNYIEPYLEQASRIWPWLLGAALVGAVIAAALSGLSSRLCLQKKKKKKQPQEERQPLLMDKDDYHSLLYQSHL
From the text: as §1, §2
A first class of compounds based upon the template compound benzohydroxamic acid were tested for tyrosinase inhibition by methods described in Curto, E. V., et al. (1999). Results of the tests are given in Examples 1-5.
as §3

Mel Ab melanocyte [4] = settings: cited from earlier work
[5] = test system: mammalian melanocyte culture; settings: cited from earlier work
mammalian tyrosinase [6] = target: T1, mammalian tyrosinase; settings: cited from earlier work

Row | SMILES | IC50 (Mel Ab melanocyte [1]; Mus musculus, Mel-Ab) | T: concentration of compound that results in 50% reduction in cell number in the mammalian melanocyte culture toxicity assay [2] | IC50 (mammalian tyrosinase [3]) | further results
1 | O=C(NO)c1ccncc1 [ID-245] | 183 µM | 566 µM | 3.2 µM | 
2 | O=C(NO)c1ccccc1O [ID-282, Salicylhydroxamic acid] |  | 974 µM | 3.7 µM | 
3 | Nc1ccccc1C(=O)NO [ID-318, 2-Aminobenzohydroxamic acid] | 431 µM | 600 µM | 19 µM | 
4 | O=C(NO)c1ccccc1 [ID-357, Benzohydroxamic acid] | 64 µM | 64 µM | 0.82 µM | 
5 | COc1ccc(C(=O)NO)cc1OC [ID-456, 3,4-Dimethoxybenzohydroxamic acid] | 576 µM | 641 µM | 15 µM | 
6 | COc1ccc(C(=O)N[O-])cc1OC.[K+] [ID-458, Potassium salt of 3,4-dimethoxy-benzohydroxamic acid] |  | 624 µM | 23 µM | IC50 (Mel Ab melanocyte [1]): 637 µM
7 | Nc1cccc(C(=O)NO)c1 [ID-461, 3-Aminobenzohydroxamic acid] | 225 µM | >1000 µM | 4 µM | 
8 | COc1ccc(C(=O)NO)c(O)c1 [ID-462] | > 1000 µM | >1000 µM | 3.6 µM | 
9 | CC(=O)c1ccc(O)c(C(=O)NO)c1 [ID-474] | > 1000 µM | >1000 µM | 51 µM | 
10 | Nc1ccc(C(=O)NO)cc1 [ID-476, 4-Aminobenzohydroxamic acid] | 64 µM | 550 µM | 0.34 µM | 
11 | CCCCOc1ccc(C(=O)NO)cc1 [ID-477, 4-Butoxybenzohydroxamic acid] | 326 µM | >554 µM | 12 µM | 
12 | COc1cccc(C(=O)NO)c1 [ID-478, 3-Methoxybenzohydroxamic acid] | 148 µM | 580 µM | 0.91 µM | 
13 | COc1ccc(C(=O)N[O-])cc1.[K+] [ID-479, Potassium salt of 4-methoxybenzohydroxamic acid] |  | 64 µM | 1.67 µM | IC50 (Mel Ab melanocyte [1]): 43 µM
14 | COc1ccc(C(=O)NO)cc1 [ID-480, 4-Methoxybenzohydroxamic acid] | 57 µM | 170 µM | 1.26 µM | 
15 | Cc1cccc(C(=O)NO)c1 [ID-481, 3-Methylbenzohydroxamic acid] | 60 µM | 522 µM | < 0.25 µM | 
16 | O=C(NO)c1cccc(Cl)c1 [ID-482, 3-Chlorobenzohydroxamic acid] | 40 µM | 577 µM | < 0.25 µM | 
17 | COc1ccccc1C(=O)NO [ID-483, 2-Methoxybenzohydroxamic acid] | 807 µM | 900 µM | 32 µM | 
18 | CC(=O)Nc1ccccc1C(=O)NO [ID-484, 2-Acetamidobenzohydroxamic acid] | > 1000 µM | >1000 µM | > 231 µM | 
19 | Cc1cccc(C(=O)N(C)O)c1 [ID-485, 3,N-Dimethylbenzohydroxamic acid] | > 1000 µM | >1000 µM | 68 µM | 
20 | CC(=O)Nc1cccc(C(=O)NO)c1 [ID-486, 3-Acetamidobenzohydroxamic acid] | 369 µM | >1000 µM | 5.3 µM | 
21 | Cc1ccc(C(=O)NO)cc1 [ID-497, 4-Methylbenzohydroxamic acid] | 45 µM | 160 µM | 0.29 µM | 
22 | CN(C)c1ccc(C(=O)NO)cc1 [ID-498, 4-Dimethylaminobenzo-hydroxamic acid] | 44 µM | 136 µM | 2.2 µM | 
23 | Cc1ccc(C(=O)NO)cc1N [ID-499, 13-Amino-4-methyl-benzohydroxamic acid] | 177 µM | 747 µM | 6.4 µM | 
24 | O=C(NO)c1cccc(Oc2ccccc2)c1 [ID-500, 3-Phenoxybenzohydroxamic acid] | 234 µM | >300 µM | 0.16 µM | 
25 | Oc1ccc(O)cc1 [hydroquinone] |  |  |  | IC50 on Mel-Ab culture (Mel Ab melanocyte [4]; positive control, owing to cytotoxicity and not inhibition of pigmentation per se): low micrograms per milliliter range; melanocyte cytotoxicity [5]: potent melanocyte cytotoxicity; enzymatic inhibition (mammalian tyrosinase [6]): minimal enzymatic inhibition
26 | COC(=O)c1cc(O)ccc1O [methyl gentisate] |  |  |  | IC50 in pigmentation inhibition in melanocyte cell cultures (Mel Ab melanocyte [4]; Curto et al. (1999)): 30.9 ± 5 µg/mL (≈ 184 µM); IC50 (Mel Ab melanocyte [4]; Curto et al. (1999), read-out: IC50 in pigmentation inhibition in melanocyte cell cultures): 184 µM; melanocyte cytotoxicity IC50 ([5]; Curto et al. (1999)): 118.7 ± 12 µg/mL; IC50 ([5]; Curto et al. (1999), read-out: melanocyte cytotoxicity IC50): 707 µM; IC50 (mammalian tyrosinase [6]; Curto et al. (1999), read-out: IC50 against tyrosinase in cell-free assays (converted)): 67 µM and 66.6 µM

From patent publication US20030199558A1, “Hydroxamic acid and its derivatives as inhibitors of melanocyte tyrosinase for topical skin lighteners” (Integriderm, Inc., priority 2001, published 2003)
